According to patent publication US8357678B2, “Chair ruthenium complexes and their use as anticancer agents” (Guangdong Pharmaceutical University, priority 2007, dated 2013):

Columns and labels:
Assay in all cases: MTT assay, inhibitory activity against growth of cancer cells
Format in all cases: cell-based
[1] = tested on: human hepatocarcinoma cell line Bel-7402; settings: 72 h incubation
Description: (§1) The inhibitory activity of these chair ruthenium(II) complexes have been evaluated by MTT assay by using 5-fluorouracil (5-Fu) as positive control. Human hepatocarcinoma cell line Bel-7402, human intestinal adenocarcinoma cell line HCT-8 and Human lung adenocarcinoma epithelial cell line A-549 were supplied by the Institute of Materia Medica, Chinese Academy of Medical Sciences & Peking Union Medical College. The determination of the cytotoxicity (dark toxicity) of the compound was carried out in parallel with the phototoxicity determination following the same procedure, with the exclusion of the irradiation.
(§2) General method: Cells were diluted to 5000/ml by PRMI1640 minimal essential medium with 10% fetal calf serum (FCS), plated at 100 μl cells per well in a 96-well Corning microtiter plate, and incubated at 37° C. with 5% CO2 for 24 h. After cell was covered a single layer, drugs (10 μl) was added, and PRMI1640 minimal essential medium was supplied to make the total volume to 200 μl. After incubated for another 72 h at 37° C., 5% CO2, the medium was removed and freshly prepared MTT dissolved in DMSO (200 μl) was added, and the OD value was recorded on ELISA Reader at 544 nm. The inhibitory activity of ruthenium complexes was calculated according to equation: Inhibitory activity(%)=([…])/(ODcontrol−ODblank)×100%.

[2] = tested on: Human lung adenocarcinoma epithelial cell line A-549; settings: Dosage 5 μg/ml, 72 h incubation
Description: as §1, §2

[3] = tested on: human intestinal adenocarcinoma cell line HCT-8; settings: 72 h incubation
Description: as §1, §2

Compound | Inhibitory activity (%) BEL-7402 ([1]; Dosage 5 μg/ml) [%] | Inhibitory activity (%) BEL-7402 ([1]; Dosage 50 μg/ml) [%] | Inhibitory activity (%) A-549 [2] [%] | Inhibitory activity (%) HCT-8 ([3]; Dosage 5 μg/ml) [%] | Inhibitory activity (%) HCT-8 ([3]; Dosage 50 μg/ml) [%]
FC(F)(F)c1ccccc1-c1nc2c3ccc[n+]4c3c3c(ccc[n+]3[Ru-4]435([n+]4ccccc4-c4cccc[n+]43)[n+]3ccccc3-c3cccc[n+]35)c2[nH]1.F[P-](F)(F)(F)(F)F.F[P-](F)(F)(F)(F)F [Δ-1, Δ-[Ru(bpy)2(tFPIP)](PF6)2] | 85.0 | 88.3 | 62.0 | 81.6 | 86.2
F[P-](F)(F)(F)(F)F.F[P-](F)(F)(F)(F)F.c1cc[n+]2c(c1)-c1cccc[n+]1[Ru-4]213([n+]2ccccc2-c2cccc[n+]21)[n+]1ccccc1-c1[nH]c2cc4ccccc4cc2[n+]13 [Δ-4, Δ-[Ru(bpy)2(PYNI)](PF6)2] | 2.8 | 36.0 | −8.2 | 1.8 | 38.6
FC(F)(F)c1ccccc1-c1nc2c3ccc[n+]4c3c3c(ccc[n+]3[Ru-4]435([n+]4ccccc4-c4cccc[n+]43)[n+]3ccccc3-c3cccc[n+]35)c2[nH]1.F[P-](F)(F)(F)(F)F.F[P-](F)(F)(F)(F)F [Λ-1, Λ-[Ru(bpy)2(tFPIP)](PF6)2] | 85.2 | 88.8 | 56.4 | 83.0 | 88.9
F[P-](F)(F)(F)(F)F.F[P-](F)(F)(F)(F)F.c1cc[n+]2c(c1)-c1cccc[n+]1[Ru-4]213([n+]2ccccc2-c2cccc[n+]21)[n+]1cccc2c4nc(-c5ccc6c(c5)OCCO6)[nH]c4c4ccc[n+]3c4c21 [Λ-3, Λ-[Ru(bpy)2(IPBH)](PF6)2] | 3.0 | 44.3 | −0.92 | 2.1 | 39.1
F[P-](F)(F)(F)(F)F.F[P-](F)(F)(F)(F)F.c1cc[n+]2c(c1)-c1cccc[n+]1[Ru-4]213([n+]2ccccc2-c2cccc[n+]21)[n+]1ccccc1-c1[nH]c2cc4ccccc4cc2[n+]13 [Λ-4, Λ-[Ru(bpy)2(PYNI)](PF6)2] | 4.4 | 22.6 | −2.3 | 3.6 | 21.4
Δ-[Ru(bpy)2(IPBP)](PF6)2 [Δ-2] | 9.6 | 86.8 | 18.5 | 13.1 | 83.4
Λ-[Ru(bpy)2(IPBP)](PF6)2 [Λ-2] | 0.19 | 64.9 | −0.52 | 2.23 | 53.7
